Test results from patent publication EP2149374A1 (WORLD-TRADE IMPORT-EXPORT, WTIE, A.G., priority 2007, dated 2008).

Assays:
[1] = Comparative clinical study: general urine examination (leukocytes in urine sediments, urine pH); type: in vivo, patients; settings: n=50 per group
Description: (§1) Urinary tract infection constitutes the most frequent urologic disease and is one of the most common infections in human beings. Urinary infection encompasses several clinical conditions, so the proper study thereof is very important for a suitable diagnose and treatment, in view of the extensive and not inconsiderable hospital and healthcare expenses these involve.
(§2) Inclusion criteria were the following: • - Patients from 18 to 75 years of age. • - Patients having a non-complex acute urinary infection diagnose. • > 12 leukocytes per mm3 in urine sediments. • - Urine counts of > 100,000 UFC/ml. • - Urine pH over 6.0. • - Microorganism identification.
(§3) Only twice a day for 5 days,- group 2, received Vitamin C 100 mg.
General urine examination determined the color, appearance and density thereof, as well as the pH, Proteins, Glucose, Ketones, Blood, Bilirubin, Urobilinogen, Nitrites, Density and Leukocytes. […] Table 2. Leukocytes per mm3 in baseline urine sediments and up to Day 5 of the treatment.

[2] = Comparative clinical study: overall healing process (conclusions); type: in vivo; settings: patients with acute non-complex urinary tract infection, 5 days of treatment
Method: as §1, §3

[3] = system: E. coli; assay: Comparative clinical study: urocultive by antibiogram, urine counts (colony-forming units); type: in vivo, Escherichia coli; settings: n=50 per group
Description: as §1, §2, §3
Table 4. Urine Counts in UFC/ml. (Colony-Forming Units).

Structure (SMILES): O=C1O[C@H]([C@@H](O)CO)C(O)=C1O [Vitamin C, Ascorbic Acid]
- pH (Day 1) ([1]; baseline urine pH, before treatment): 7.6
- Leukocytes (Day 1) ([1]; baseline urine sediments, before treatment): > 13 per mm3
- pH (Day 5) ([1]; urine pH, Day 5 of the treatment, twice a day for 5 days): 5.0
- Leukocytes Day 5 ([1]; urine sediments, Day 5 of the treatment, twice a day for 5 days): < 10 per mm3
- healing process [2]: not sufficient by itself to achieve a healing process
- UFC/ml (Day 1) ([3]; baseline urine counts (Colony-Forming Units), before treatment): >100,000/ml. UFC/ml
- UFC/ml Day 5 ([3]; urine counts (Colony-Forming Units), Day 5 of the treatment, twice a day for 5 days): 90.000/ml. UFC/ml
